Measurements from US20150072391A1, “ETHANOL PRODUCTION IN ENGINEERED YEAST” (Massachusetts Institute of Technology, priority 2013, published 2015).
Like-named read-outs stand apart in the source and are kept apart here.

What was measured:
[1] = tested on: yeast; experiment: Fermentation in synthetic media with cellulosic hydrolysate inhibitors; assay type: cell-based
Description: To determine whether elevated K^+ and pH can overcome the toxicity in acid hydrolysates of cellulosic biomass, fermentation experiments were performed using synthetic lab media supplemented with the known major inhibitors (e.g., acetic acid, furfural and hydroxymethylfurfural (HMF)).
All concentrations were then increased by a factor of four to 120 mM (FIG. 23B), far above what has been reported in any hydrolysate. […] Raising K^+ and pH then boosted production by another 54%.

[2] = tested on: laboratory strain (S288C); assay type: cell-based, Saccharomyces cerevisiae; settings: for effect on ethanol output among additives screened: additives to 1×YSC, 300 g/L glucose (FIG. 7)
Description: (§1) To explore how ionic composition of the culture medium affects ethanol performance, chemically defined conditions were necessary which precluded, in some instances, the use of rich formulas such as yeast extract-peptone-dextrose (YEPD) medium or those containing corn steep liquor. […] After the addition of a carbon source and any ionic supplements, all medium were adjusted to pH 3.8 (i.e., the equilibrium pH from the addition of 50 mM K—Pi to 1×YSC), if necessary, using KOH, typically requiring <400 μM. Cultures were incubated at 30° C.: flask cultures (>25 mL) were agitated on a platform shaker at 200 RPM and smaller cultures in glass tubes on a roller drum at the maximum rotational setting.
(§2) Pre-fermentation cultures were grown until saturation and their cell densities determined by absorbance at 600 nm of an appropriate dilution made using fresh medium. Equalized quantities of biomass (e.g., ≧200 OD600 units) were harvested by centrifugation and re-suspended in ˜10 mL of fermentation medium to yield a cell density of OD600≧20. In addition to the target high sugar concentration (e.g., 300 g/L glucose), the fermentation medium optionally contained the supplements under study (e.g., 50 mM K—Pi) and were the first time cells were exposed to modified ionic conditions.
(§3) Fermentations were conducted micro-aerobically: tube-based cultures had at least an equal volume of headspace and were capped snugly with snap-on plastic tops but not sealed with Parafilm. Samples were taken every ˜24 h over the course of 1-4 d; for simplicity, however, several figures display bar graphs of steady state or near steady state ethanol titers (e.g., FIGS. 5A-D). Typically, 16-20 μL were removed and diluted appropriately for measurement of cell density at OD600, another 20 μL for quantification of cell viability by methylene blue staining (see below), and a final 0.5 mL pelleted and the supernatant saved for determination of ethanol concentration.
Ethanol concentrations were determined using one of the following two methods; for consistency, however, all samples deriving from a single experiment were assayed exclusively using one method. […] Absorbances of NADH at 340 nm were blanked against a reaction with ddH2O, measured using an Ultrospec 2100 pro UV/Visible spectrophotometer (GE Healthcare Life Sciences), and normalized against the absorbance of the control solution (“bottle 4”) to determine ethanol concentrations.
To determine final concentrations, peak areas auto-determined by the Agilent Chemstation for LC software were interpolated off a standard curve consisting of 0-20% ethanol (by volume) prepared in 1×YSC medium.
Images were recorded using a SPOT Insight 2 MP Firewire color camera with SPOT 5.0 software, and analyzed offline.
For each image, the number of unstained (clear) cells was quantified along with the total number (clear+stained) of cells, and the fraction of live cells determined by taking the quotient of the two. Fractions of viable cells were determined for 3-4 images per sample and used to calculate error statistics for the technical replicates (e.g., FIGS. 2A, 2B, 8A). Mean OD600 absorbance values were multiplied by their respective mean viable fractions to arrive at the underlying viable population in OD600 units (e.g., FIG. 1B, 3B).
To calculate ethanol productivities per viable cell, rates of increase in ethanol titer were normalized by the average viable OD600 during the corresponding period (FIG. 1A): […]

[3] = tested on: strain FY4/5 (S288C); assay type: cell-based, Saccharomyces cerevisiae
[4] = tested on: Strain BY4743; experiment: Intracellular pH by ratiometric pHluorin after ethanol shock; assay type: cell-based, Saccharomyces cerevisiae; settings: for counteraction of the ethanol-mediated pH drop: supplementation of medium
Description: Strain BY4743 (WT) was transformed with p416TEF-pHluorin and grown overnight in 1×YSC-URA containing 200 g/L glucose and any indicated supplements. Equal amounts of yeast biomass were washed and transferred into respective fresh medium containing the indicated concentrations of ethanol, incubated at room temperature for 30 min, and measured for fluorescence emission. The ratio of intensities emitted from excitation at 395 nm and 475 nm ([…]) is directly proportional to pH.
To assess pHi, fluorescence intensities from strains carrying a centromeric plasmid expressing ratiometric pHluorin (LAMy178) or empty vector (LAMy96) were measured in a Tecan Safire^2™ microplate reader using excitation wavelengths of 395 nm and 475 nm, and common emission wavelength of 508 nm. Samples, all normalized for cell density, of 140 μL were aliquoted in duplicate to a 96-well black-walled, clear-bottom plate (Costar #3631), and the readings of the replicates averaged. Autofluorescence was removed by subtracting measurements of LAMy96 from LAMy178, both treated under identical conditions. The ratio of the intensities emitted by excitation at 395 nm to that by excitation at 475 nm is directly proportional to pHi; ratios in the 0.5-1.2 range roughly correspond to pH values of ˜5.5-7 (Orij, R., et al. Microbiology (Reading, Engl) 155, 268-278 (2009)).

[5] = tested on: S288C; settings: YP diluted to 20%
Description: as §1

[6] = tested on: H131-A3-AL^CS; experiment: High cell density xylose fermentation; assay type: cell-based, Saccharomyces cerevisiae; settings: K—Pi supplementation, 100 g/L xylose
Description: Furthermore, altering the medium to augment membrane gradients enhanced ethanol production not only from glucose, but from xylose, an abundant carbon source from lignocellulosic feedstocks that cannot be metabolized by unmodified S. cerevisiae^23. Therefore K—Pi supplementation was tested on H131-A3-AL^CS, a strain incorporating the Piromyces XYLA isomerase and P. stipitis XYL3 xylulokinase, and optimized to consume xylose^24. In high cell density, high xylose-only (100 g/L) fermentations, increases of ˜70% in both ethanol titer and productivity were found (FIG. 5D). […]
To build yeast biomass and osmotically adapt cells for high cell density and high sugar fermentations, starter cultures consisting of the unmodified base medium (i.e., 1×YSC or YSC-URA) and ˜0.3× the target fermentation sugar concentration (e.g., 100 g/L glucose) were grown until saturation, pelleted by centrifugation, and the entire cell mass used to inoculate a second “pre-fermentation” culture containing ˜0.5-0.6× the target sugar concentration (e.g., 150 g/L glucose). Pre-fermentation cultures were grown until saturation and their cell densities determined by absorbance at 600 nm of an appropriate dilution made using fresh medium. Equalized quantities of biomass (e.g., ≧200 OD600 units) were harvested by centrifugation and re-suspended in ˜10 mL of fermentation medium to yield a cell density of OD600≧20. […]

[7] = tested on: S288C, PE-2, Ethanol Red, Kyokai 7; experiment: Glucose fermentation of laboratory and industrial yeast strains; assay type: cell-based, Saccharomyces cerevisiae; settings: K—Pi supplementation, laboratory prototroph and auxotroph and industrial strains
Description: as §2, §3

[8] = cited from earlier work; for Specific activity: on PNPC
[9] = low viscosity CMC; cited from earlier work

Molecule: O=Cc1ccc(CO)o1 [HMF, hydroxymethylfurfural]
- inhibition compared to the unsupplemented control ([1]; 120 mM): 10%

Molecule: [Cl-].[K+] [KCl, potassium chloride]
- effect on ethanol output among additives screened [2]: largest enhancement within the panel of chloride salts tested
- effect on ethanol output and viability during fermentation ([2]; varied amount of KCl (10-75 mM) in synthetic medium): dose-dependent improvements
- viability after isobutanol shock ([3]; 5 g/L glucose, additional KCl alone): insufficient to improve viability
- counteraction of the ethanol-mediated pH drop [4]: not capable of counteracting

Molecule: [K+] [K^+]
- resistance to isobutanol ([3]; 5 g/L glucose, K+ supplementation combined with higher pH (5.3 vs. 3.9)): capable of enhancing resistance to isobutanol
- enhancement of ethanol output ([5]; addition of K+, pH 6, SD): 17±2.5%
- restoration of ethanol titers ([5]; pH 3.7, addition of K+): 47±2.5%
- ethanol titer ([5]; pH 3.7, addition of K+, SD): 109 ± 1.8 g/L

Molecule: O=P([O-])(O)O.[K+] [K—Pi, potassium phosphate monobasic]
- rise in ethanol output ([2]; 50 mM K—Pi added to 1×YSC, 300 g/L glucose, initial OD600 20-30, vs unmodified medium): > 50%
- final ethanol titer ([2]; 50 mM K—Pi, 4-day culture, 300 g/L glucose): ~140 g/L
- effect on ethanol output among additives screened [2]: largest improvement
- specific ethanol productivity (rate normalized by mean live population) ([2]; elevated K—Pi vs unmodified medium): remained unchanged
- additional yeast biomass ([2]; high K—Pi vs unmodified medium): ~25%
- survival after ethanol shock ([3]; 10-20% ethanol, 300 g/L glucose, 50 mM K—Pi vs unmodified medium): survival was indeed enhanced
- survival after isobutanol shock ([3]; steps of isobutanol, 300 g/L glucose, elevated K—Pi): reduced rate of survival
- viability after isopropanol shock ([3]; steps of isopropanol, 300 g/L glucose, K—Pi supplementation): viability was similarly enhanced
- increase in ethanol productivity [6]: ~70%
- increase in ethanol titer [6]: ~70%
- ethanol output titers (near the molar conversion limit) [7]: ~150 g/L
- counteraction of the ethanol-mediated pH drop [4]: not capable of counteracting

Molecule: O=P([O-])(O)O.[Na+] [Na—Pi, monosodium phosphate]
- effect on ethanol output among additives screened [2]: improves ethanol titer over NaCl

Molecule: CCO [ethanol]
- effect on intracellular pH ([4]; shocks of increasing ethanol concentration): decreased intracellular pH in a dose-dependent fashion

Molecule: OCc1ccco1 [furfuryl alcohol]
- tolerance by yeast compared to furfural [1]: much better tolerated

B1: Cellulomonas fimi cex: CBHI group cellulase expressed in S. cerevisiae (protein, UniProt P07986 42-484, looked up)
Exoglucanase/xylanase: ATTLKEAADGAGRDFGFALDPNRLSEAQYKAIADSEFNLVVAENAMKWDATEPSQNSFSFGAGDRVASYAADTGKELYGHTLVWHSQLPDWAKNLNGSAFESAMVNHVTKVADHFEGKVASWDVVNEAFADGDGPPQDSAFQQKLGNGYIETAFRAARAADPTAKLCINDYNVEGINAKSNSLYDLVKDFKARGVPLDCVGFQSHLIVGQVPGDFRQNLQRFADLGVDVRITELDIRMRTPSDATKLATQAADYKKVVQACMQVTRCQGVTVWGITDKYSWVPDVFPGEGAALVWDASYAKKPAYAAVMEAFGASPTPTPTTPTPTPTTPTPTPTSGPAGCQVLWGVNQWNTGFTANVTVKNTSSAPVDGWTLTFSFPSGQQVTQAWSSTVTQSGSAVTVRNAPWNGSIPAGGTAQFGFNGSHTGTNAAPTAFSLNGTPCTVG
- activity measured per L culture broth ([8]; PNPC): 8 U/L,
- activity per dry cell weight ([8]; PNPC): ~1.0 U/g DCW (PNPC)
- Specific activity [8]: 3 U/mg

B2: Cellulomonas fimi Exg (cex): CBHI group cellulase expressed in S. cerevisiae (protein, UniProt P07986 42-484, looked up)
Exoglucanase/xylanase: B1 Exoglucanase/xylanase
- activity measured per L culture broth ([8]; PNPC): 45 U/L (PNPC)
- Specific activity [8]: 3.6 (PNPC) U/mg

B3: Cellulamonas fimi Eng (cenA): endoglucanase expressed in S. cerevisiae (protein, UniProt P07984 32-449, looked up)
Endoglucanase A: APGCRVDYAVTNQWPGGFGANVTITNLGDPVSSWKLDWTYTAGQRIQQLWNGTASTNGGQVSVTSLPWNGSIPTGGTASFGFNGSWAGSNPTPASFSLNGTTCTGTVPTTSPTPTPTPTTPTPTPTPTPTPTPTVTPQPTSGFYVDPTTQGYRAWQAASGTDKALLEKIALTPQAYWVGNWADASHAQAEVADYTGRAVAAGKTPMLVVYAIPGRDCGSHSGGGVSESEYARWVDTVAQGIKGNPIVILEPDALAQLGDCSGQGDRVGFLKYAAKSLTLKGARVYIDAGHAKWLSVDTPVNRLNQVGFEYAVGFALNTSNYQTTADSKAYGQQISQRLGGKKFVIDTSRNGNGSNGEWCNPRGRALGERPVAVNDGSGLDALLWVKLPGESDGACNGGPAAGQWWQEIALEMARNARW
- activity measured per L culture broth [9]: 293 U/L (low viscosity
